{
  "source": "patent US20040005708A1",
  "about": "“Polypeptide derivatives and nucleic acid carriers containing the same” (priority 2002, published 2004)",
  "key": {"[1]": {"tested_on": "mice", "conditions": "tail vein, Plasmid A 12.5 μg/0.5 ml per mouse, plasmid/pDBA weight ratio 1/3, two days after administration", "procedure": "A solution of Plasmid A and a solution of pDBA were prepared at twice the desired concentration. Thirty minutes prior to administration, the pDBA solutions were added dropwise to the plasmid solution while stirring to prepare plasmid/pDBA complexes solution. PBS was used as solvent. Specifically, 50.0 μg/ml plasmid solutions were prepared, and plasmid/pDBA complex solutions having a plasmid concentration of 25 μg/ml were used as the gene transfer samples.\nThe complex solutions were administered to mice through their tail veins. The dosage of Plasmid A per mouse was 12.5 μg/0.5 ml. Two days after administration the gene transfer to the tissue was determined by measuring the luciferase activity found in the liver."}, "[2]": {"tested_on": "HepG2 cells", "conditions": "Plasmid A (luciferase) complex, plasmid/pDBA weight ratio 1/3 to 1/7, 10% fetal bovine serum, 4 h then 48 h incubation, compared to non-modified pDBA", "procedure": "Thirty minutes prior to administration, the nucleic acid carriers were added dropwise to the plasmid solution while stirring to prepare plasmid/pDBA complex solutions. PBS was used as solvent. Specifically, 25.0 μg/ml plasmid solutions were prepared, and plasmid/pDBA complex solutions having a plasmid concentration of 12.5 μg/ml were used as the gene transfer samples.\nHepG2 cells were inoculated onto a 12-well multi-well plate (Coaster Inc.) at 1×10^5 cells/well one day prior to testing. The plasmid/pDBA complex solution was added to the HepG2 cells in the presence of 10% fetal bovine serum (Sanko Junyaku Co. Ltd.), and incubation was carried out at 37° C. for 4 hours. Medium was exchanged with a fresh culture medium and incubation continued for 48 hours. After washing with PBS twice, a cell lysis reagent (Toyo Ink Co. Ltd.) was added and freeze-thaw was carried out once. The cell lysate was recovered and subjected to centrifugation (12,000 rpm×10 minutes). The luciferase activity of the supernatant was determined with a luminometer (LumitLB9501; Berthold Inc.) using a luciferase assay system (Toyo Ink Co. Ltd.). The protein concentration of the centrifuged supernatant was also determined with a microplate reader (Rainbow Themo; Tecan Inc.) using a protein assay kit (Bio-Rad Inc.). […]"}},
  "data": [
    {"substance": "side chain galactose-modified poly-DL-diaminobutyric acid [Gal-pDBA]", "values": [
      {"measurement": "luciferase activity in the liver as compared to the group where pDBA was used as the nucleic acid carrier", "setting": "[1]", "result": "about 2.5 fold"},
      {"measurement": "activity of luciferase expressed", "setting": "[2]", "result": "higher luciferase activity than did non-modified pDBA"}
    ]}
  ]
}
